From ChEMBL document CHEMBL1155917, “Use of the nitrile oxide cycloaddition (NOC) reaction for molecular probe generation: a new class of enzyme selective histone deacetylase inhibitors (HDACIs) showing picomolar activity at HDAC6” (J Med Chem, 2008) come the findings set out here.

Assay [1] addresses Histone deacetylase 2 (Homo sapiens, UniProt Q92769). The assay is described as follows: Inhibition of HDAC2 after 17 hrs.
The target in assay [2] is Histone deacetylase 3 (Homo sapiens, UniProt O15379). The assay is described as follows: Inhibition of HDAC3 after 17 hrs.
Histone deacetylase 3, sequence (O15379 whole entry): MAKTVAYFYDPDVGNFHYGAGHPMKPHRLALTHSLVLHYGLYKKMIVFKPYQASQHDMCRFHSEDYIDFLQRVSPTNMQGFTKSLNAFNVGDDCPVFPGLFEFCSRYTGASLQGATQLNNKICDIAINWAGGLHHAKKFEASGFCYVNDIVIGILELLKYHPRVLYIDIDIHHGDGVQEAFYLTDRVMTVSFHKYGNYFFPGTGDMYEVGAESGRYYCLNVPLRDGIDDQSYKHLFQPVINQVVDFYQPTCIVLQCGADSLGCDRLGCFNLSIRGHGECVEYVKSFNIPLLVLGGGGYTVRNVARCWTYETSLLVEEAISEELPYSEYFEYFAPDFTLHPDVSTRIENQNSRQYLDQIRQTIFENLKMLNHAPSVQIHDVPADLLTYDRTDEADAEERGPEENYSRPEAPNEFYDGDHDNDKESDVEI
Assay [3] addresses T1, Protein deacetylase HDAC6 (Homo sapiens, UniProt Q9UBN7).
T1 sequence (Q9UBN7 whole entry): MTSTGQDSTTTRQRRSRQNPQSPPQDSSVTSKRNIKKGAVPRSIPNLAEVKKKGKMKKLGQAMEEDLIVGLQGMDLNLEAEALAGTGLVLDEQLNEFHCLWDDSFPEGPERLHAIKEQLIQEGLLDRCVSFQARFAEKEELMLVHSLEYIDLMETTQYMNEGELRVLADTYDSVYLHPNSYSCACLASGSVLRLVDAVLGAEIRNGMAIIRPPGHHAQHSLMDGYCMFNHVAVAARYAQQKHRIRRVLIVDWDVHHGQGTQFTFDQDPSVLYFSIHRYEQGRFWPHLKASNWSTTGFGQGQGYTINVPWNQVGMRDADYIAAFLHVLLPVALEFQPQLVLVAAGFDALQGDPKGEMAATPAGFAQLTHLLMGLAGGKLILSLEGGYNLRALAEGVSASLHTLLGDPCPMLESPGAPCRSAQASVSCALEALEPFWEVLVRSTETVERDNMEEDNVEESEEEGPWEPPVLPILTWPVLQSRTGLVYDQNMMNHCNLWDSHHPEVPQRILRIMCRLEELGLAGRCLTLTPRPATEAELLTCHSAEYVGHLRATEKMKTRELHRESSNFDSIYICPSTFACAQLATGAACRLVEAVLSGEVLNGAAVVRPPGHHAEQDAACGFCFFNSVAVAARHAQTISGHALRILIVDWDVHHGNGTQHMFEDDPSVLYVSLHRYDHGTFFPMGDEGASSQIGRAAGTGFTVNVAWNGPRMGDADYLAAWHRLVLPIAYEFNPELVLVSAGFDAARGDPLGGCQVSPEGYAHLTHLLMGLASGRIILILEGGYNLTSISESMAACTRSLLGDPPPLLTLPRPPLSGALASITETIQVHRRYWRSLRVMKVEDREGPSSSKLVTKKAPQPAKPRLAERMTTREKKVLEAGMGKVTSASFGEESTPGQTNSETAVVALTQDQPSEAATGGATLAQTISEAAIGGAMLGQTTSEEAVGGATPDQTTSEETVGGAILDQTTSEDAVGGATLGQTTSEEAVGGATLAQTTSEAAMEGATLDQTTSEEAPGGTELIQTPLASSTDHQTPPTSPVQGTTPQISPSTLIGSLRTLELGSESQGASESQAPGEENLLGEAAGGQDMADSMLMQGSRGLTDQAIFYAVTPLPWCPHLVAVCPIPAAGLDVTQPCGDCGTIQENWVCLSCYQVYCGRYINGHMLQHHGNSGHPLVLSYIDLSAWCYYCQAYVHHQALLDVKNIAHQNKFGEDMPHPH
The assay is described as follows: Inhibition of HDAC6 after 17 hrs.

Assay [4] has as its system BXPC-3. In words: Antiproliferative activity against human BxPC3 cells after 72 hrs by MTT assay. Format: functional, cell-based. To be noted: BXPC-3, 72 h.
Assay [5] concerns HuP-T3. The assay is described as follows: Antiproliferative activity against human HupT3 cells after 72 hrs by MTT assay. Format: functional, cell-based. To be noted: HuP-T3, 72 h.
In assay [6] the test system is MIA PaCa-2. The assay is described as follows: Antiproliferative activity against human MiaPaca2 cells after 72 hrs by MTT assay. Format: functional, cell-based. To be noted: MIA PaCa-2, 72 h.
The nature of assay [7]: Antiproliferative activity against human Panc04.03 cells after 72 hrs by MTT assay. Format: functional, cell-based. To be noted: Panc 04.03, 72 h.
Assay [8] can be described thus: Antiproliferative activity against human SU.86.86 cells after 72 hrs by MTT assay. Format: functional, cell-based. To be noted: SU.86.86, 72 h.
The target of assay [9] is Histone deacetylase 1 (Homo sapiens, UniProt Q13547).
Histone deacetylase 1, sequence (Q13547 whole entry): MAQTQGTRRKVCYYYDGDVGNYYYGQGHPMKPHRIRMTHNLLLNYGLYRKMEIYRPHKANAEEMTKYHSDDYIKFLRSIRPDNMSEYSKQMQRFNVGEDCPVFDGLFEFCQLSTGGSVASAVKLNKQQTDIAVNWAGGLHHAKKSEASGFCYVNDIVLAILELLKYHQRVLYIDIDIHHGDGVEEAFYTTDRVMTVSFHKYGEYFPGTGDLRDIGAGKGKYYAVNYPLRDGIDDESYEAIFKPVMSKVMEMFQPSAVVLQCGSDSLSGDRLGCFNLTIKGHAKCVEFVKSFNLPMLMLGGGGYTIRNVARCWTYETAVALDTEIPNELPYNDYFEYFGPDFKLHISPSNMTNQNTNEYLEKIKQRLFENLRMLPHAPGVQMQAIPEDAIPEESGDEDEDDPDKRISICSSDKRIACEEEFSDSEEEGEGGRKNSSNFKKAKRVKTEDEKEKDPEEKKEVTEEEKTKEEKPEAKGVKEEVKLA
Description: Inhibition of HDAC1 after 17 hrs
Assay [10] has as its target T2, Histone deacetylase 8 (Homo sapiens, UniProt Q9BY41).
T2 sequence (Q9BY41 whole entry): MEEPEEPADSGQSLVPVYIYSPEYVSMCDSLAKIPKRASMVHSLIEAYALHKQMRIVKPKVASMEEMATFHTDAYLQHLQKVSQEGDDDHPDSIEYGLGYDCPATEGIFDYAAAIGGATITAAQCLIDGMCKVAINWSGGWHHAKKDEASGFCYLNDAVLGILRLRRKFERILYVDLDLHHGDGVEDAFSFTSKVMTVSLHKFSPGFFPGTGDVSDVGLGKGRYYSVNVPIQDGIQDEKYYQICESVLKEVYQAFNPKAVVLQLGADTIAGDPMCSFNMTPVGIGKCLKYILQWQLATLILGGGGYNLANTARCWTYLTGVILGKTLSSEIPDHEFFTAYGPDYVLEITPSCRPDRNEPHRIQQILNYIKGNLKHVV
Description: Inhibition of HDAC8 after 17 hrs

Assay [11] addresses T3, Polyamine deacetylase HDAC10 (Homo sapiens, UniProt Q969S8).
T3 sequence (Q969S8 whole entry): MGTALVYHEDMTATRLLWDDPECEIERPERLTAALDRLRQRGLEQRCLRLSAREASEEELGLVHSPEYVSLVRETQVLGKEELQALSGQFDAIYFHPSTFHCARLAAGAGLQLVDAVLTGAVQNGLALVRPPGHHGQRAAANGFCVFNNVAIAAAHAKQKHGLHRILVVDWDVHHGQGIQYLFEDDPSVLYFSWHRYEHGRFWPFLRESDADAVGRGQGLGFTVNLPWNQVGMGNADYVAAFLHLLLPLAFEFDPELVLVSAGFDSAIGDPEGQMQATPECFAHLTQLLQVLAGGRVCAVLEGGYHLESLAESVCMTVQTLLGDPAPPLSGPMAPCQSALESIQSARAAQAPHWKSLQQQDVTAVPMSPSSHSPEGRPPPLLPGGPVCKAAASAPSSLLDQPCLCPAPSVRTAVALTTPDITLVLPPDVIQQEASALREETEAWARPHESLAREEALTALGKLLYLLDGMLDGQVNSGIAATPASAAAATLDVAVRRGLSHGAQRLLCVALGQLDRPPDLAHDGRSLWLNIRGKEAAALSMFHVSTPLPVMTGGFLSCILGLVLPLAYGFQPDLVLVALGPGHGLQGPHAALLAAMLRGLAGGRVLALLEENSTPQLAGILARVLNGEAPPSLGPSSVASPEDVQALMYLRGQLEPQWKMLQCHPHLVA
Description: Inhibition of HDAC10 after 17 hrs

The test system of assay [12] is HMEC. In words: Cytotoxicity against HMEC after 72 hrs by MTT assay. Format: ADME, cell-based. The following applies: Homo sapiens.
A short description of assay [13]: Cytotoxicity against HPDE 6c7 cells after 72 hrs by MTT assay. Format: ADME, cell-based. To be noted: Homo sapiens, HPDE6c7, 72 h.

Histone deacetylase 2, sequence (Q92769 whole entry): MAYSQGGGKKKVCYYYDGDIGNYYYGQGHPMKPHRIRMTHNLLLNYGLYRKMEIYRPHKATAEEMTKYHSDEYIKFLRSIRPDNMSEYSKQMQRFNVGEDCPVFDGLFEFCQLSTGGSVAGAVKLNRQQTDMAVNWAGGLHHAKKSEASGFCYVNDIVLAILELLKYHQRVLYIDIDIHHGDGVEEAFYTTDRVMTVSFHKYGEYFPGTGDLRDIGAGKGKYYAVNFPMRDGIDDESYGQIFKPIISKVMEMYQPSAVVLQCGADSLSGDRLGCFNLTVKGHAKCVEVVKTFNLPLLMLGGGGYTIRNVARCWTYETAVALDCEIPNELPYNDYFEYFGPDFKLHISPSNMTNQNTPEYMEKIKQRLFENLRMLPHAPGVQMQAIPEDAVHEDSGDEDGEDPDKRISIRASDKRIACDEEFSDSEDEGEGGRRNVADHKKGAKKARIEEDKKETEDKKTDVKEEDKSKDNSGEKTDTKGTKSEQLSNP

`Nc1cccc(-c2cc(C(=O)NCCCCC(=O)NO)no2)c1`: the IC50 was 1940 nM in assay [1]; 144 nM in assay [2]; 72.2 nM in assay [3]; 38000 nM in assay [4]; 37000 nM in assay [5]; 25000 nM in assay [6]. Further, the IC50 in assay [7] was greater than 50000 nM; in assay [8], 25000 nM; in assay [9], 716 nM; in assay [10], 3430 nM; in assay [11] it was 840 nM.
As for `CC(C)(C)OC(=O)Nc1ccc(-c2cc(C(=O)NCCCCC(=O)NO)no2)cc1`, the half-maximal inhibitory concentration (IC50) was determined as 1740 nM in assay [1]; 115 nM in [2]; 31.6 nM in [3]; 25000 nM in assay [4]; 10000 nM in assay [5]; 12000 nM in [6]. In addition, the IC50 in assay [7] was found to be 16000 nM; in assay [8] it was 24000 nM; in [9], 628 nM; in [10], 3650 nM; in assay [11], 690 nM.
`Nc1ccc(-c2cc(C(=O)NCCCCCCC(=O)NO)no2)cc1`: the IC50 in [1] came to 147 nM; in assay [2], 10.2 nM; in assay [3], 5.86 nM; in assay [4], 800 nM; in assay [5] it was 200 nM; in assay [6], 100 nM. Also, the IC50 in assay [7] is 100 nM; in assay [8], 800 nM; in assay [12], less than 1000 nM; in assay [13], 400 nM; in [9], 56.3 nM; in [10], 3460 nM. In addition, in assay [11], the IC50 came out at 44.9 nM.
For `O=C(CCCCNC(=O)c1cc(-c2ccccc2)on1)NO`, the IC50 in assay [1] is 1690 nM; in [2], 158 nM; in assay [3], 61.9 nM; in [4], 28000 nM; in [5], 5000 nM; in [6], 4000 nM. The IC50 in assay [7] amounted to 5000 nM; in [8], 5000 nM; in [9], 644 nM; in [10], 3580 nM; in assay [11], 852 nM.
Regarding `Nc1cccc(-c2cc(C(=O)NCCCCCCC(=O)NO)no2)c1`, the IC50 in assay [1] was determined as 56.7 nM; in [2] it was 4.04 nM; in [3], 2.54 nM; in assay [4] it was 700 nM; in [5], 100 nM; in assay [6], 100 nM. Besides, the IC50 in assay [7] is 900 nM; in assay [8], 200 nM; in assay [12] it was less than 1000 nM; in assay [13], 200 nM; in assay [9], 20.7 nM; in [10], 938 nM. Further, the concentration for half-maximal inhibition (IC50) in [11] amounted to 17.5 nM.
For `Nc1ccc(-c2cc(C(=O)NCCCCC(=O)NO)no2)cc1`, the IC50 in [1] stood at 1050 nM; in assay [2], 65.8 nM; in assay [3] it was 35.1 nM; in assay [4], 33000 nM; in assay [5], 7000 nM; in assay [6] it was 10000 nM. The IC50 in [7] worked out at 17000 nM; in assay [8], 11000 nM; in [9] it was 360 nM; in [10], 2830 nM; in assay [11], 401 nM.
As for `CC(=O)Nc1ccc(-c2cc(C(=O)NCCCCCCC(=O)NO)no2)cc1`, the IC50 in assay [1] was determined as 131 nM; in assay [2], 18 nM; in assay [3], 6.81 nM; in assay [4], 6000 nM; in assay [5] it was 1000 nM; in [6], 900 nM. The IC50 was determined as 4000 nM in assay [7]; 1000 nM in assay [8]; 64.5 nM in assay [9]; 4900 nM in assay [10]; 73 nM in [11].
For `CC(C)(C)OC(=O)Nc1cccc(-c2cc(C(=O)NCCCCCCC(=O)NO)no2)c1`, the IC50 was 238 nM in assay [1]; less than 0.002 nM in [2]; less than 0.002 nM in [3]; 1000 nM in [4]; 800 nM in assay [5]; 700 nM in assay [6]. The IC50 in assay [7] turned out to be 1000 nM; in assay [8], 1000 nM; in assay [12] it was 7000 nM; in [13], 1500 nM; in assay [9], 100 nM; in assay [10], 8100 nM. In assay [11], this compound yielded an IC50 of 28.2 nM.
For the compound `CC(C)(C)OC(=O)Nc1cccc(-c2cc(C(=O)NCCCCC(=O)NO)no2)c1`, the IC50 in assay [1] was found to be 2980 nM; in assay [2], 83.6 nM; in [3], 3.98 nM; in assay [4], 36000 nM; in [5], 14000 nM; in assay [6], 8000 nM. Further, the 50% inhibitory concentration (IC50) in assay [7] was 14000 nM; in assay [8], 22000 nM; in assay [9] it was 826 nM; in [10], 5810 nM; in assay [11], 891 nM.
For `CC(C)(C)OC(=O)Nc1ccc(-c2cc(C(=O)NCCCCCCC(=O)NO)no2)cc1`, the IC50 in [1] was determined as 252 nM; in assay [2] it was 0.42 nM; in assay [4] it was 1000 nM; in assay [5], 300 nM; in assay [6], 100 nM; in assay [7] it was 100 nM. Moreover, the IC50 is 600 nM in assay [8]; less than 1000 nM in [12]; 500 nM in assay [13]; 271 nM in assay [9]; 6850 nM in assay [10]; 90.7 nM in assay [11].
As for `O=C(CCCCOCc1cc(-c2ccccc2)on1)NO`, the IC50 in assay [1] was determined as 133 nM; in assay [2] it was 12.9 nM; in [3], 49.5 nM; in assay [4] it was 7000 nM; in assay [5], 400 nM; in assay [6] it was 1000 nM. In addition, the IC50 in assay [7] worked out at 1500 nM; in [8], 1000 nM; in [9] it was 124 nM; in assay [10] it was 3320 nM; in assay [11], 155 nM.
